By MIC is commonly meant the lowest concentration that inhibits growth of the organism. As a reminder, the IC50 is the concentration at which inhibition is half-maximal. The term pIC50 denotes −log10 of the IC50, conventionally taken in molar units. In general, inhibition refers to the drop in the measured response relative to a control, in per cent.

pIC50: −log10 of the molar value. ≈ marks a conversion by molar mass, not a printed value.

The test system of one series is HEK293. Put plainly: Cytotoxicity against HEK293 cells. It is filed as functional, Homo sapiens.
Series [1] deals with HCT-116. Put plainly: Cytotoxicity against human HCT-116 cells. It is filed as functional.
Series [2] relates to Bacillus subtilis. Put plainly: Antibacterial activity against Bacillus subtilis. It is filed as functional.
The subject of series [3] is Escherichia coli. As to the kind of experiment: Antibacterial activity against Escherichia coli. It is filed as functional.
Another series has as its system Candida albicans. Put plainly: Antifungal activity against Candida albicans assessed as zone of inhibition. It is filed as functional.
The subject of the next series is Aspergillus niger. Put plainly: Antifungal activity against Aspergillus niger. It is filed as functional.
A further series concerns Aspergillus clavatus. Put plainly: Antifungal activity against Aspergillus clavatus. It is filed as functional.
Series [4] deals with Bacillus subtilis. As to the kind of experiment: Antibacterial activity against Bacillus subtilis assessed as zone of inhibition at 5 mg/ml. It is filed as functional. As to conditions: read-out: IZ.
Another series relates to HepG2. As to the kind of experiment: Cytotoxicity against human HepG2 cells by MTT assay. It is filed as functional, cell-based. A general note: Tetrazolium dyes change colour on reduction, which living cells bring about.
A further series concerns MCF7. Put plainly: Cytotoxicity against human MCF7 cells by MTT assay. It is filed as functional, cell-based.
For series [5], the system named is HCT-116. Put plainly: Cytotoxicity against human HCT-116 cells by MTT assay. It is filed as functional, cell-based.
Another series relates to SiHa. Put plainly: Cytotoxicity against human SiHa cells by MTT assay. It is filed as functional, cell-based.
The test system of the next series is A549. Put plainly: Cytotoxicity against human A549 cells by MTT assay. It is filed as functional, cell-based.
Series [6] has as its system Mus musculus. As to the kind of experiment: Antiinflammatory activity in mouse assessed as inhibition of paw edema after 24 hrs. Further details: scale not given: the % may be the effect or the level left. It is filed as functional.
The test system of the next series is CHO-K1. Put plainly: Cytotoxicity against CHO-K1 cells by MTT assay. It is filed as toxicity, cell-based, Cricetulus griseus. Further details: concentration or dose not given beside the values. The note with it: chinese hamster.
A short description of series [7]: Inhibition of Hepatitis C virus NS3 protease. It is filed as functional, Hepacivirus hominis.
The test system of another series is Enterococcus faecalis. As to the kind of experiment: Antibacterial activity against Enterococcus faecalis assessed as zone of inhibition at 5 mg/ml. It is filed as functional. As to conditions: read-out: IZ.
For the next series, the system named is Proteus vulgaris. Put plainly: Antibacterial activity against Proteus vulgaris assessed as zone of inhibition at 5 mg/ml. As to conditions: read-out: IZ. It is filed as functional.
The next series relates to Streptococcus mutans. Put plainly: Antibacterial activity against Streptococcus mutans assessed as zone of inhibition at 5 mg/ml. It is filed as functional. As to conditions: read-out: IZ.
The subject of another series is Staphylococcus aureus. As to the kind of experiment: Antibacterial activity against Staphylococcus aureus assessed as zone of inhibition at 5 mg/ml. It is filed as functional. As to conditions: read-out: IZ.
Series [8] has as its system Escherichia coli. As to the kind of experiment: Antibacterial activity against Escherichia coli assessed as zone of inhibition at 5 mg/ml. The note with it: read-out: IZ. It is filed as functional.
For series [9], the target named is T1, liver carboxylesterase (CES) (Sus scrofa, UniProt Q29550).
T1 sequence (Q29550 whole entry): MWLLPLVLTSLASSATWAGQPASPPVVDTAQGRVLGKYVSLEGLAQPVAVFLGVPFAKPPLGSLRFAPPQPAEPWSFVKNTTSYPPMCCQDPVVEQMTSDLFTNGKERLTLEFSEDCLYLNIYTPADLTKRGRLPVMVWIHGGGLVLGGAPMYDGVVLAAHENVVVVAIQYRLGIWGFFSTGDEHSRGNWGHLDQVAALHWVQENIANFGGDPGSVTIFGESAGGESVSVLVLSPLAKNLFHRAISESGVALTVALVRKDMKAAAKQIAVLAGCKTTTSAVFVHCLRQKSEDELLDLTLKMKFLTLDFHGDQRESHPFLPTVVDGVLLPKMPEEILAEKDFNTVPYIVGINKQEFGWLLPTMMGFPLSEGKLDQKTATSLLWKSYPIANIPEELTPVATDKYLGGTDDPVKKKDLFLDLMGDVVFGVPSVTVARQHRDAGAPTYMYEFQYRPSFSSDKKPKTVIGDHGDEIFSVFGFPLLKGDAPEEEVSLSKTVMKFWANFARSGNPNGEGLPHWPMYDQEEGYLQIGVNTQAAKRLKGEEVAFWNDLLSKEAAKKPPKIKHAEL
Put plainly: Inhibition of pig liver CES at 20 uM relative to control. It is filed as tissue-based.

Series [10] is described as follows: Antioxidant activity assessed as ABTS radical scavenging activity. It is filed as functional.
Series [11] concerns Rattus norvegicus. Put plainly: Analgesic activity in Sprague-Dawley rat at 15 mg/kg after 1 hr by hot plate test. It is filed as functional. For orientation: Hot-plate and tail-flick tests time the reaction to a heat stimulus.
In series [12] the test system is Rattus norvegicus. Put plainly: Analgesic activity in Sprague-Dawley rat at 15 mg/kg after 2 hrs by hot plate test. It is filed as functional.
The test system of series [13] is Mus musculus. Put plainly: Anxiolytic activity in mouse assessed as time spent in light at 1 mg/kg, po. It is filed as functional.
Series [14] concerns Mus musculus. Put plainly: Anxiolytic activity in mouse assessed as transfer number at 1 mg/kg, po. It is filed as functional.

The compound `Clc1ccc(-c2cc3nccc(-c4ccc(Cl)cc4)n3n2)cc1` yielded an Activity with HEK293 of 44.2%.
On to `COc1ccc(-c2cc3nccc(-c4ccccc4)n3n2)cc1`, for which the Activity in the series with HCT-116 [1] is 26%.
Same read-out and setting: to `COc1ccc(-c2ccnc3cc(-c4ccc(Cl)cc4)nn23)cc1` belongs 37%.
Take `Cc1cc(NN2C(=O)C3CCCCC3C2=O)n2ncc(C#N)c2n1` (stereo unspecified): the MIC against Bacillus subtilis [2], against Escherichia coli [3], against Aspergillus niger and in the series on Aspergillus clavatus was 10 µg/mL (≈ 30.8 µM) throughout. The “inhibition zone (IZ)” value with Candida albicans is 19.1 mm.
In the case of `Nc1nc2c(/N=N/c3ccc(C(F)(F)F)cc3)c(N)nn2c(N)c1/N=N/c1ccc(C(F)(F)F)cc1`, the zone of inhibition at 5000 µg/mL in the series on Bacillus subtilis [4] turned out to be 8 mm. Moreover, the IC50 amounted to 0.6 µg/mL (≈ 1.18 µM) in the series on HepG2, 0.3 µg/mL (≈ 0.59 µM) with MCF7 and 0.4 µg/mL (≈ 0.787 µM) with HCT-116 [5].
Take `COc1ccc(-c2cc(-c3nn4cc(-c5ccncc5)cnc4c3S(=O)(=O)c3cc([N+](=O)[O-])c(OC)c([N+](=O)[O-])c3)on2)cc1`: the pIC50 in the series on SiHa was 7.10; with A549, 7.27.
Take `COc1ccc(-c2cnc3c(C(=O)Nc4c(C)n(C)n(-c5ccccc5)c4=O)cnn3c2N)cc1`: the values for the Activity in the series with Mus musculus [6] and with CHO-K1 were 25% and 72.96%, respectively.
In [7], `N#C/C(=C/c1ccc(Cl)cc1)c1nn2c(-c3cccs3)cc(C(F)(F)F)nc2c1C#N` yielded an IC50 of 7.33 µg/mL (≈ 16.1 µM).
As to `Cc1cc(C)nc(NS(=O)(=O)c2ccc(/N=N/c3c(N)nc4c(/N=N/c5ccc(F)cc5)c(N)nn4c3N)cc2)n1`, the zone of inhibition at 5000 µg/mL in the series on Enterococcus faecalis, in the series with Proteus vulgaris, in the series with Streptococcus mutans, in the series with Staphylococcus aureus, with Bacillus subtilis [4] and in the series on Escherichia coli [8] was 9 mm each time.
On to `COc1ccc(-c2ccnc3cc(-c4ccccc4)nn23)cc1`, for which the Activity in the series on HEK293 came out at 48%.
In turn, `CC(C)OC(=O)[C@H](C)N[P@](=O)(OC[C@H]1O[C@@H](n2ccc(=O)[nH]c2=O)[C@](C)(F)[C@@H]1O)Oc1ccccc1` [SOFOSBUVIR] returned an IC50 in [7] of 3.2 µg/mL (≈ 6.04 µM).
`CC1=Nc2cc(-c3ccccc3)nn2C(=O)/C1=N\Nc1ccc(C)cc1` yielded an inhibition at 20 µM in [9] of 22.8%. The Activity in series [10] was 0.21 µM; with Rattus norvegicus [11], 43.9%; in the series on Rattus norvegicus [12], 65.9%.
As for `CN1C(=O)CN=C(c2ccccc2)c2cc(Cl)ccc21` [DIAZEPAM], the results for the Activity in the series on Mus musculus [13] and with Mus musculus [14] were 171.6% and 171.6, respectively.

The values are drawn from ChEMBL document CHEMBL5241120, “Insights into the medicinal chemistry of heterocycles integrated with a pyrazolo[1,5-a]pyrimidine scaffold” (RSC Med Chem, 2022).
